One test has as its target T1, AII receptor (Bos taurus, UniProt P25104).
T1 construct: An AII receptor membrane fraction was prepared from bovine adrenal cortex; from tissue; host or cells: bovine adrenal cortex, membrane fraction
T1 sequence (P25104 1-359): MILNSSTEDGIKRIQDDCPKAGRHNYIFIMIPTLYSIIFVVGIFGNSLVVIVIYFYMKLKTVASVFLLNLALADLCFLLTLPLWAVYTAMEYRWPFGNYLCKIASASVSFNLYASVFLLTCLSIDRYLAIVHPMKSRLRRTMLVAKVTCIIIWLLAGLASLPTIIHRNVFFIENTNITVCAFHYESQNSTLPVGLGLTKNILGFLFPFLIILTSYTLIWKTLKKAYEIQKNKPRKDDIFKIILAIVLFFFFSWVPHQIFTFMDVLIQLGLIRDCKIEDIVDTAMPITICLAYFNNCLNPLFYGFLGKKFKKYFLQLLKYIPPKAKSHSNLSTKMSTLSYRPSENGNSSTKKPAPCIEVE
Description: Inhibition of binding of 125I-angiotensin II to AII receptor membrane fraction. The following applies: bovine adrenal cortex membrane fraction, 125I-AII, read-out: Binding-inhibitory action (rate) %; for inhibition at 1 µM: compound 10^-6 M; for inhibition at 0.1 µM: compound 10^-7 M. The method, then: An experiment of inhibition on the binding of angiotensin II (AII) to AII receptor was conducted by modifying the method of Douglas et al. [Endocrinology, 102, 685-696 (1978)]. An AII receptor membrane fraction was prepared from bovine adrenal cortex.
The compound of the present invention (10^-6 M or 10^-7 M) and ^125 I-angiotensin II (^125 I-AII) (2.44kBq/50 μl) were added to the receptor membrane fraction, and the mixture was incubated at room temperature for one hour. The receptor-bound and free ^125 I-AII were separated through a filter (Whatman GF/B filter), and the radioactivity of ^125 I-AII bound to the receptor was determined.

The next test has as its system pressor action of AII. Description: Inhibitory effect on pressor action of AII in rats after oral administration. Format: in vivo, Jcl:SD rats. The following applies: 1 mg/kg p.o., percent inhibition of pressor action of AII 100 ng/kg i.v. How it is done: Jcl:SD rats (9 week old, male) were used. On the previous day of the experiment, these animals were applied with cannulation into the femoral artery and vein under anesthesia with pentobarbital Na. These animals were fasted but allowed to access freely to drinking water until the experiment was started. Just on the day of conducting the experiment, the artery cannula was connected with a blood-pressure transducer, and the average blood pressure was recorded by means of polygraph. Before administration of the drug, the pressor action due to intravenous administration of AII (100 ng/kg) as the control was determined. The drugs were orally administered, then, at each point of the determination, AII was administered intravenously, and the pressor action was similarly determined. By comparing the pressor action before and after administration of the drug, the percent inhibition by the drug was evaluated.

With `CCCCc1n[nH]c(C(=O)OC)c1Cc1ccc(-c2ccccc2-c2nsc(=O)[nH]2)cc1` [compound 3], at AII receptor, the inhibition at 1 µM came out at 17% and the inhibition at 0.1 µM came out at 7%. For the same compound, the Pressor-inhibitory action entry with pressor action of AII was “+++ (+++ ≥ 70%)”.
Take `CCCCc1nn(-c2ccccc2Cl)c(C(=O)O)c1Cc1ccc(-c2ccccc2-c2nsc(=O)[nH]2)cc1` [compound 8]: the inhibition at 1 µM at AII receptor is 37%. In the test with pressor action of AII, the Pressor-inhibitory action entry was “+++ (+++ ≥ 70%)”.
On to `CCCCc1n[nH]c(C(=O)O)c1Cc1ccc(-c2ccccc2-c2nc(=O)o[nH]2)cc1` [Working Example 2, 3-Butyl-4-[2'-(2,5-dihydro-5-oxo-1,2,4-oxadiazol-3-yl)biphenyl-4-yl]methylpyrazole-5-carboxylic acid], for which, at AII receptor, the inhibition at 1 µM amounted to 68% and the inhibition at 0.1 µM was 30%. In addition, the Pressor-inhibitory action result in the test on pressor action of AII is “+ (50% > +-)”.
With `CCCCc1nn(-c2ccccc2Cl)c(C(=O)O)c1Cc1ccc(-c2ccccc2-c2noc(=O)[nH]2)cc1` [compound 6], the inhibition at 1 µM at AII receptor came out at 32%. Also, the Pressor-inhibitory action entry in the test on pressor action of AII was “++ (70% > ++ ≥ 50%)”.

Source of the values: patent publication US5496835A, “Heterocyclic compounds having angiotensin II antagonistic activity and use thereof” (Takeda Chemical Industries, Ltd., priority 1992, dated 1996).
